The text below walks through data of patent US20070117858A1, “SUBSTITUTED 5-HETEROARYL-1-PHENYL-PYRAZOLE CANNABINOID MODULATORS” (priority 2005, published 2007).

Experiment [1] addresses T1, human CB1 receptor (Homo sapiens, UniProt P21554).
T1 construct: expressed in transfected cells; host or cells: SK-N-MC cells, stably transfected with pcDNA3 CB-1 (human); semi-purified membrane pellet
The experiment can be described thus: Cannabinoid CB1 receptor binding assay ([3H]-CP-55,940 displacement, SK-N-MC cell membranes). Particulars: for inhibition at 0.2 µM: 1.5 h, read-out: Cannabinoid CB1 Receptor Binding, percent inhibition. The procedure:
(§1) Binding Assay for CB1 or CB2 Agonists or Inverse Agonists
(§2) The human CB1 and CB2 receptors were stably expressed in SK-N-MC cells transfected with pcDNA3 CB-1 (human) or pcDNA3 CB-2 (human). The cells were grown in T-180 cell culture flasks under standard cell culture conditions at 37° C. in a 5% CO2 atmosphere. The cells were harvested by trysinization and homogenized in a homogenization buffer (10 mM Tris, 0.2 mM MgCl2, 5 mM KCl, with protease inhibitors aprotinin, leupeptin, pepstatin A and bacitracin) and centrifuged (2000 g). The supernatant was then centrifuged in 2M sucrose (31,300 g) to produce a semi-purified membrane pellet. The pellet was resuspended in homogenization and stored at −80° C.
(§3) On the day of the assay, the pellet was thawed on ice and diluted in assay buffer (50 mM Tris-HCl, 5 mM MgCl2, 2.5 mM EDTA, 0.5 mg/mL fatty acid free bovine serum albumin, pH 7.5). The diluted membrane pellet was added with buffer, either a test compound or vehicle standard and the radioligand […] (0.2 nM) to the wells of a 96-well polypropylene plate. Non-specific binding was measured in wells containing W1N 55,212 (10 uM). The plate was covered and incubated for 90 minutes at 30° C. The contents were then aspirated onto a Packard Unifilter GF/C filter bottom plate prewet with 0.5% polyethyleneimine. The wells of the polypropylene plate were rinsed and aspirated seven times with a 0.9% saline-0.5% Tween 20 solution. The Unifilter plate was dried, scintillation cocktail was added to each well and the counts representing binding were quantitated in a TopCount scintillation counter.
(§4) For compounds tested, an IC50 binding value was obtained from percent inhibition studies in which various test concentrations were used. The binding value was calculated by linear regression.
(§5) For compounds without an IC50 binding value, the percent inhibition (%) was obtained at a test concentration of 0.2 μM.

Experiment [2] deals with T2, human CB2 receptor (Homo sapiens, UniProt P34972).
T2 construct: expressed in transfected cells; host or cells: SK-N-MC cells, stably transfected with pcDNA3 CB-2 (human); semi-purified membrane pellet
T2 sequence (P34972 whole entry): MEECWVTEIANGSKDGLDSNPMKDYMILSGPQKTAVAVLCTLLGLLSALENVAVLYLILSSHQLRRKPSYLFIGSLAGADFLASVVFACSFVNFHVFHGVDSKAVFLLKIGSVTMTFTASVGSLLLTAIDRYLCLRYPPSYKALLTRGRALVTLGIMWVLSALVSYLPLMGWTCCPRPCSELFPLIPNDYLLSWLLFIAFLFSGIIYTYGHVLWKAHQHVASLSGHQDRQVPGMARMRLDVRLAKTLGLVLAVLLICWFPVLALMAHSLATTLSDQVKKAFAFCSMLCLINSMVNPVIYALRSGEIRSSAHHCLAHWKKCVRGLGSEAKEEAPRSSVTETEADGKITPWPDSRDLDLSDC
The experiment is described as follows: Cannabinoid CB2 receptor binding assay ([3H]-CP-55,940 displacement, SK-N-MC cell membranes). Particulars: 1.5 h; test concentration of 0.2 μM; radioligand CP-55,940 0.2 nM; read-out: Cannabinoid CB2 Receptor Binding, percent inhibition. The procedure:
as §1, §2, §3, §4, §5

T1 sequence (P21554 whole entry): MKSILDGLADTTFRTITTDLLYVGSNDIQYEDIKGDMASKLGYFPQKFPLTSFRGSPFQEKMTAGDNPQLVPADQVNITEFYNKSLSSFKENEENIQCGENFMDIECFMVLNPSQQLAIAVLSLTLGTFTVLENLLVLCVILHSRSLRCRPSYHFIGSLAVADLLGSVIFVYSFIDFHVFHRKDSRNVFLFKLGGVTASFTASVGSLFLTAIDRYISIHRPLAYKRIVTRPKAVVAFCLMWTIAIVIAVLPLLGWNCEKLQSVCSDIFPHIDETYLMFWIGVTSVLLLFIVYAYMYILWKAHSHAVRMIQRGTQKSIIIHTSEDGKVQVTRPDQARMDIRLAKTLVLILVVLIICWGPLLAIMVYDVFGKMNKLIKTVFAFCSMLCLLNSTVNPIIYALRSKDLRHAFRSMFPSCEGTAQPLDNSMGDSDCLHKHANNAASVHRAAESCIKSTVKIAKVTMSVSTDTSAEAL

By inhibition is commonly meant the share of the control response that was lost under treatment. Regarding `Cc1c(C(=O)N[C@@H](C)c2ccccn2)nn(-c2ccc(Cl)cc2Cl)c1-c1ccc(F)s1` [Cpd 34, 1-(2,4-dichloro-phenyl)-5-(5-fluoro-thiophen-2-yl)-4-methyl-1H-pyrazole-3-carboxylic acid [(1S)-1-pyridin-2-yl-ethyl]-amide], the inhibition at 0.2 µM was found to be 61% in experiment [1] and 34% in experiment [2].
Taken in the same sequence, the figures for `Cc1c(C(=O)N[C@H](C)c2ccccc2)nn(-c2ccc(Cl)cc2Cl)c1-c1cccs1` [Cpd 6, 1-(2,4-dichloro-phenyl)-4-methyl-5-thiophen-2-yl-1H-pyrazole-3-carboxylic acid [(1R)-1-phenyl-ethyl]-amide] were 57% and 8%.
The term IC50 denotes the concentration that gives 50% inhibition. High values mean weaker potency in that assay, low ones greater potency in that assay. Molecule `C[C@H](NC(=O)c1nn(-c2ccc(Cl)cc2Cl)c(-c2ccc(Cl)s2)c1C#N)c1ccccc1` [Cpd 26, 5-(5-chloro-thiophen-2-yl)-4-cyano-1-(2,4-dichloro-phenyl)-1H-pyrazole-3-carboxylic acid [(1S)-1-phenyl-ethyl]-amide] showed an IC50 in experiment [1] of 110 nM. In experiment [2], the inhibition at 0.2 µM is 16%.
Take `CCc1c(C(=O)N[C@H](C)c2ccccc2)nn(-c2ccc(Cl)cc2Cl)c1-c1ccc(Br)s1` [Cpd 40, 5-(5-bromo-thiophen-2-yl)-1-(2,4-dichloro-phenyl)-4-ethyl-1H-pyrazole-3-carboxylic acid [(1R)-1-phenyl-ethyl]-amide]: the inhibition at 0.2 µM in experiment [1] came to 78%; in experiment [2] it was 52%.
Turning to `Cc1c(C(=O)NN2CCC(O)CC2)nn(-c2ccc(Cl)cc2Cl)c1-c1ccc(Cl)s1` [Cpd 4, 5-(5-chloro-thiophen-2-yl)-1-(2,4-dichloro-phenyl)-4-methyl-1H-pyrazole-3-carboxylic acid (4-hydroxy-piperidin-1-yl)-amide], the inhibition at 0.2 µM in experiment [1] turned out to be 27%; in experiment [2], 11%.
Regarding `Cc1c(C(=O)N[C@@H](C)c2ccccc2)nn(-c2ccc(Cl)cc2Cl)c1-c1cc(Br)cs1` [Cpd 46, 5-(4-bromo-thiophen-2-yl)-1-(2,4-dichloro-phenyl)-4-methyl-1H-pyrazole-3-carboxylic acid [(1S)-1-phenyl-ethyl]-amide], the inhibition at 0.2 µM was found to be 52% in experiment [1] and 47% in experiment [2].
`N#Cc1c(C(=O)NN2CCCCC2)nn(-c2ccc(Cl)cc2Cl)c1-c1ccc(Cl)s1` [Cpd 23, 5-(5-chloro-thiophen-2-yl)-4-cyano-1-(2,4-dichloro-phenyl)-1H-pyrazole-3-carboxylic acid piperidin-1-ylamide]: the half-inhibitory concentration (IC50) in experiment [1] was 71 nM. Also, in experiment [2], the inhibition at 0.2 µM is 22%.
Turning to `C[C@@H](NC(=O)c1nn(-c2ccc(Cl)cc2Cl)c(-c2ccc(Cl)s2)c1C#N)C1CCCCC1` [Cpd 24, 5-(5-chloro-thiophen-2-yl)-4-cyano-1-(2,4-dichloro-phenyl)-1H-pyrazole-3-carboxylic acid [(1R)-1-cyclohexyl-ethyl]-amide], in experiment [1], the 50% inhibitory concentration (IC50) was found to be 15 nM. Moreover, the inhibition at 0.2 µM in experiment [2] was 13%.
Take `Cc1c(C(=O)N[C@@H](C)c2ccccn2)nn(-c2ccc(Cl)cc2Cl)c1-c1cccs1` [Cpd 9, 1-(2,4-dichloro-phenyl)-4-methyl-5-thiophen-2-yl-1H-pyrazole-3-carboxylic acid [(1S)-1-pyridin-2-yl-ethyl]-amide]: the results for the inhibition at 0.2 µM in experiment [1] and in experiment [2] were 25% and 8%, respectively.
Taken in the same sequence, the figures for `N#Cc1c(C(=O)N2CCCCC2)nn(-c2ccc(Cl)cc2Cl)c1-c1cccs1` [Cpd 21, 1-(2,4-dichloro-phenyl)-3-(piperidine-1-carbonyl)-5-thiophen-2-yl-1H-pyrazole-4-carbonitrile] were 12% and 3%.
As for `Cc1c(C(=O)N[C@@H](C)c2ccccn2)nn(-c2ccc(Cl)cc2Cl)c1-c1cc(Br)cs1` [Cpd 47, 5-(4-bromo-thiophen-2-yl)-1-(2,4-dichloro-phenyl)-4-methyl-1H-pyrazole-3-carboxylic acid [(1S)-1-pyridin-2-yl-ethyl]-amide], the inhibition at 0.2 µM in experiment [1] was found to be 56%; in experiment [2] it was 46%.
In turn, `Cc1c(C(=O)N[C@H](C)c2ccccc2)nn(-c2ccc(Cl)cc2Cl)c1-c1ccc(F)s1` [Cpd 32, 1-(2,4-dichloro-phenyl)-5-(5-fluoro-thiophen-2-yl)-4-methyl-1H-pyrazole-3-carboxylic acid [(1R)-1-phenyl-ethyl]-amide] registered a half-maximal inhibitory concentration (IC50) in experiment [1] of 46 nM. In experiment [2], the inhibition at 0.2 µM stood at 55%.
As for `Cc1c(C(=O)N[C@H](C)C2CCCCC2)nn(-c2ccc(Cl)cc2Cl)c1-c1ccc(Cl)s1` [Cpd 13, 5-(5-chloro-thiophen-2-yl)-1-(2,4-dichloro-phenyl)-4-methyl-1H-pyrazole-3-carboxylic acid [(1R)-1-cyclohexyl-ethyl]-amide], the IC50 in experiment [1] was 74 nM. Moreover, the inhibition at 0.2 µM in experiment [2] came out at 37%.
